Measurements from patent publication US20140135310A1, “SULPHONAMIDE DERIVATIVES OF ALICYCLIC AMINES FOR THE TREATMENT OF CENTRAL NERVOUS SYSTEM DISEASES” (Adamed Sp. z o.o., priority 2011, published 2014).
Read-outs that look alike come from different tables or passages of the source.

Tests used:
[1] = target: 5-HT6 serotoninergic receptors (Homo sapiens, UniProt P50406); assay: Cellular functional assay, 5-HT6 serotoninergic receptors; format: cell-based; conditions: agonist mode; percent of control specific agonist response
Sequence of 5-HT6 serotoninergic receptors (P50406 whole entry): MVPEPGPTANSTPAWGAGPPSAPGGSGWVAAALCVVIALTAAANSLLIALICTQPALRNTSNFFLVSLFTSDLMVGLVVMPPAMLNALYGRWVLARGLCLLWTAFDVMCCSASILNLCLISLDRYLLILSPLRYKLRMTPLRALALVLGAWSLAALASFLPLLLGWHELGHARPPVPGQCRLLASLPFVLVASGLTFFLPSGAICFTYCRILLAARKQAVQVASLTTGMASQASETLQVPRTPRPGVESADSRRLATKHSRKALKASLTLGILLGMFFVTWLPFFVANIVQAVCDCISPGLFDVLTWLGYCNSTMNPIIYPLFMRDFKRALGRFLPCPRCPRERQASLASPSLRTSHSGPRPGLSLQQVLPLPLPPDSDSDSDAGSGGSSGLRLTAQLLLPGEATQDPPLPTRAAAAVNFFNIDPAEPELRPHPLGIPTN
Procedure: (§1) The results are expressed as a percent of control specific agonist response ((measured specific response/control specific agonist response)×100) obtained in the presence of the test compounds.
(§2) The EC50 values (concentration producing a half-maximal specific response) and IC50 values (concentration causing a half-maximal inhibition of the control specific agonist response) were determined by non-linear regression analysis of the concentration-response curves generated with mean replicate values using Hill equation curve fitting (Y=D+[(A−D)/(1+(C/C50)nH)], where Y=specific response, D=minimum specific response, A=maximum specific response, C=compound concentration, and C50=EC50 or IC50, and nH=slope factor). This analysis was performed using a software developed at Cerep (Hill software) and validated by comparison with data generated by the commercial software SigmaPlot® 4.0 for Windows® (© 1997 by SPSS Inc.).
(§3) For the antagonists, the apparent dissociation constants (Kb) were calculated using the modified Cheng Prusoff equation (Kb=IC50/(1+(A/EC50A)), where A=concentration of reference agonist in the assay, and EC50A=EC50 value of the reference agonist).

5-HT6 receptor = target: T1, 5-HT6 receptor (Homo sapiens, UniProt P50406); assay: Radioligand binding assay, serotoninergic 5-HT6 receptors; conditions: for inhibition at 1 µM / 5-HT6 [%]: binding assay result in %, Table 5a; for Ki: read-out: Inhibition constants Ki, 5-HT6;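 as to 5-HT6 [%]: test compound at 1 µM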
T1 construct: purchased PerkinElmer
T1 sequence (P50406 whole entry): as above
How it was run: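 Values are Ki from Cheng–Prusoff, taking IC50 from Hill nonlinear regression of competition curves and KD from a Scatchard plot. Specific binding was total minus binding with excess unlabelled ligand. Radioligand displacement was detected by scintillation counting, and data were also reported as percent of control specific binding.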

[2] = target: 5-HT2A serotoninergic receptors (Homo sapiens, UniProt P28223); assay: Cellular functional assay, 5-HT2A serotoninergic receptors; format: cell-based
Sequence of 5-HT2A serotoninergic receptors (P28223 whole entry): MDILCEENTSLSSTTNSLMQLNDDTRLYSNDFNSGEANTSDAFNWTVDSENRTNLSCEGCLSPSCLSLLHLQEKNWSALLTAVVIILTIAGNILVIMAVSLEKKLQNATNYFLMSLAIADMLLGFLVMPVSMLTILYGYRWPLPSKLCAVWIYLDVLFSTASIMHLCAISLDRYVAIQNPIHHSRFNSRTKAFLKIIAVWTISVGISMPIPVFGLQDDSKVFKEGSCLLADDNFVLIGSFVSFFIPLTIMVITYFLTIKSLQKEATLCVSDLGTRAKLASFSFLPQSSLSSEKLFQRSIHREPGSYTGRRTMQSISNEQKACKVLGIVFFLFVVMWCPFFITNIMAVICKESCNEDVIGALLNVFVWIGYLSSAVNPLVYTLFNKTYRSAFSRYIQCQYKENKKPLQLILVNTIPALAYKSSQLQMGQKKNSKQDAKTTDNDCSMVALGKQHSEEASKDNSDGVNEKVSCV
Procedure: as §1
The EC50 values (concentration producing a half-maximal specific response) and IC50 values (concentration causing a half-maximal inhibition of the control specific agonist response) were determined by non-linear regression analysis of the concentration-response curves generated with mean replicate values using Hill equation curve fitting (Y=D+[(A−D)/(1+(C/C50)nH)], where Y=specific response, D=minimum specific response, A=maximum specific response, C=compound concentration, and C50=EC50 or IC50, and nH=slope factor).
as §3

5-HT7 receptor = target: T2, 5-HT7 receptor (Homo sapiens, UniProt P34969); assay: Radioligand binding assay, serotoninergic 5-HT7 receptors; conditions: binding assay result in %, Table 5a;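 also: test compound at 1 µM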
T2 construct: purchased PerkinElmer
T2 sequence (P34969 whole entry): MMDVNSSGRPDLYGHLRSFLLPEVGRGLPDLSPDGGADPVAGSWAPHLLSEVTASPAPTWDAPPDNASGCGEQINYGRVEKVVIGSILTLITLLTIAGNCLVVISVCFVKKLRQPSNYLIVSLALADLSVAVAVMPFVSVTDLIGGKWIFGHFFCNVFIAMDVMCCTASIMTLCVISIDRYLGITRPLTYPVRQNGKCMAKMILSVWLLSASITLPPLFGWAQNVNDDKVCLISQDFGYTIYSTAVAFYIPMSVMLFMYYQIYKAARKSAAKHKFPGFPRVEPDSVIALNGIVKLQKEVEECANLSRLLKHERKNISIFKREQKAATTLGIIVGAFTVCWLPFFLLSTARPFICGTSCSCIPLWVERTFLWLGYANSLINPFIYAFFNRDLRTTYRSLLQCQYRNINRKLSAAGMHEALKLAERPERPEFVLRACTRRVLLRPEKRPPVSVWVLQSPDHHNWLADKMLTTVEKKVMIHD
How it was run: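 Competition binding at human 5-HT7 receptors with a radioligand, detected by scintillation counting; non-specific binding was defined with excess unlabelled ligand. IC50 came from Hill-equation fits of competition curves, and Ki from Cheng–Prusoff using radioligand concentration and Scatchard-derived KD.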

receptors D4.4 = target: T3, receptors D4.4 (Homo sapiens, UniProt P21917); assay: Radioligand binding assay, dopaminergic D4 (D4.4) receptors; conditions: test compound 1×10^−6 M
T3 sequence (P21917 1-419): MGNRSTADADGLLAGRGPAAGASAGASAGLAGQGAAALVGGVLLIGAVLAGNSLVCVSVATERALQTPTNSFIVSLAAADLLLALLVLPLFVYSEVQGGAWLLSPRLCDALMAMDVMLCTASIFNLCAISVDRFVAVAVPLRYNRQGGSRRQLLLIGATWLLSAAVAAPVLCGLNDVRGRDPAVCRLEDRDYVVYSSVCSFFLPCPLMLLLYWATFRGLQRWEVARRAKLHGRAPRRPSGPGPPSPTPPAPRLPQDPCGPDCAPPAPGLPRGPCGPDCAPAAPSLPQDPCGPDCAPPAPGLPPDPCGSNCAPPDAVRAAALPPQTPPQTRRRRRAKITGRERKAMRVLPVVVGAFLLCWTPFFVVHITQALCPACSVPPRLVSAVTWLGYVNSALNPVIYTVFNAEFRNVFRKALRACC
How it was run: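 Competition radioligand binding at human D2, D3 and D4.4 receptors, detected by scintillation counting; nonspecific binding defined with excess unlabelled ligand. Results as percent inhibition of control specific binding; IC50 by Hill-equation nonlinear regression; Ki via Cheng-Prusoff, with radioligand KD from Scatchard plot.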

α2C adrenergic receptors = target: T4, α2C adrenergic receptors (Homo sapiens, UniProt P18825); assay: Radioligand binding assay, adrenergic α2C receptors; conditions: test compound 1×10^−6 M
T4 construct: expressed in transfected cells; host or cells: CHO cells
T4 sequence (P18825 1-462): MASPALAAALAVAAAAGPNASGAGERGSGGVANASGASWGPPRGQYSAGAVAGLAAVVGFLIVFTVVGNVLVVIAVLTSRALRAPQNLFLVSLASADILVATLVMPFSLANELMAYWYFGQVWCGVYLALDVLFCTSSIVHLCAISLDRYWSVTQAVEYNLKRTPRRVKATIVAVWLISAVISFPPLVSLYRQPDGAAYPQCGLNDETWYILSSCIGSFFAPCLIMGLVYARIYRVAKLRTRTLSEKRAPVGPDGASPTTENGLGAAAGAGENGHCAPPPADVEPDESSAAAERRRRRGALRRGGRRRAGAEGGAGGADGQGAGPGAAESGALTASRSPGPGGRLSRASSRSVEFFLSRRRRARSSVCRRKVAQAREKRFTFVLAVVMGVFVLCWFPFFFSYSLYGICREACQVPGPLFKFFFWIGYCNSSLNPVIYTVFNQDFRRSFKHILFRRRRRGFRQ
How it was run: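 Competitive radioligand binding at human α2C receptors, with scintillation counting. Nonspecific binding defined with excess unlabelled ligand; results given as % inhibition of control specific binding. IC50 from Hill-equation fits of competition curves; Ki via Cheng-Prusoff using radioligand concentration and Scatchard-derived KD.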

[3] = target: 5-HT7 serotoninergic receptors (Homo sapiens, UniProt P34969); assay: Cellular functional assay, 5-HT7 serotoninergic receptors; format: cell-based; conditions: for 5-HT7 ag [%]: agonist mode, percent of control specific agonist response; for 5-HT7 antag [%]: antagonist mode
Sequence of 5-HT7 serotoninergic receptors (P34969 whole entry): as the sequence (P34969 whole entry) above
Procedure: as §1, §2, §3

[4] = agonist mode, percent of control specific agonist response

Compound: O=S(=O)(NC1CCN(CCCc2noc3cc(F)ccc23)C1)c1cccc2ccccc12 (centres unmarked) [Compound 20, N-[1-[3-(6-Fluoro-1,2-benzoxazol-3-yl)propyl]pyrrolidin-3-yl]naphthalene-1-sulphonamide]
- 5-HT6 ag [%] [1]: 1%
- inhibition at 1 µM (5-HT6 receptor): 97%
- 5-HT2A ag [%] [2]: 0%
- inhibition at 1 µM (5-HT7 receptor): 98%
- inhibition at 1 µM (receptors D4.4): 100%
- inhibition at 1 µM (α2C adrenergic receptors): 78%
- 5-HT7 ag [%] [3]: −2%

Compound: O=S(=O)(NC1CCN(CCCc2noc3cc(F)ccc23)CC1)c1cccc2ccccc12 [Compound 34, N-[1-[3-(6-Fluoro-1,2-benzoxazol-3-yl)propyl]-4-piperidine]-naphthalene-1-sulphonamide]
- inhibition at 1 µM (5-HT6 receptor): 40%
- 5-HT2A ag [%] [2]: −1%
- inhibition at 1 µM (5-HT7 receptor): 100%
- inhibition at 1 µM (receptors D4.4): 37%
- inhibition at 1 µM (α2C adrenergic receptors): 94%
- 5-HT7 ag [%] [3]: −1%
- Kb ([3]; apparent dissociation constant, modified Cheng Prusoff equation, read-out: 5-HT7 antag Kb): 0.077 nM

Compound: O=S(=O)(NC1CN(CCOc2cccc3[nH]ccc23)C1)c1ccc2ccccc2c1 [Compound 50, N-[1-[2-(1H-Indol-4-yloxy)ethyl]azetidin-3-yl]naphthalene-2-sulphonamide]
- inhibition at 1 µM (5-HT6 receptor): 43%
- 5-HT2A ag [%] [2]: −2%
- inhibition at 1 µM (5-HT7 receptor): 99%
- inhibition at 1 µM (receptors D4.4): 94%
- inhibition at 1 µM (α2C adrenergic receptors): 108%
- 5-HT7 ag [%] [3]: 21%

Compound: O=S(=O)(NC1CCN(CCOc2cccc3[nH]ccc23)CC1)c1ccccc1 [Compound 55, N-[1-[2-(1H-Indol-4-yloxy)ethyl]-4-piperidine]benzenesulphonamide]
- 5-HT6 [%] (5-HT6 receptor): 3%
- 5-HT2A ag [%] [2, 4]: −1%
- 5-HT7 [%] (5-HT7 receptor): 96%
- D4.4 [%] (receptors D4.4): 31%
- α2C [%] (α2C adrenergic receptors): 99%
- 5-HT7 ag [%] [3]: 5%
- 5-HT7 antag [%] [3]: 48%

Compound: Cc1cccc(S(=O)(=O)NC2CCN(CCCc3c[nH]c4ccc(F)cc34)C2)c1 (centres unmarked) [Compound 78, N-[1-[3-(5-Fluoro-1H-indol-3-yl)propyl]pyrrolidin-3-yl]-3-methyl-benzenesulphonamide]
- 5-HT6 ag [%] [1]: 54%
- inhibition at 1 µM (5-HT6 receptor): 94%
- Ki (5-HT6 receptor): 42 nM
- 5-HT2A ag [%] [2]: 51%
- 5-HT2A antag [%] [2]: −1%
- inhibition at 1 µM (5-HT7 receptor): 89%
- inhibition at 1 µM (receptors D4.4): 79%
- inhibition at 1 µM (α2C adrenergic receptors): 85%

Compound: O=S(=O)(NC1CN(CCOc2cccc3c2OCCO3)C1)c1cccc2ccccc12 [Compound 94, N-[1-[2-(2,3-Dihydro-1,4-benzodioxan-8-yloxy)ethyl]azetidin-3-yl]-naphthalene-1-sulphonamide]
- 5-HT6 [%] (5-HT6 receptor): 65%
- 5-HT2A ag [%] [2, 4]: 7%
- 5-HT2A antag [%] ([2]; antagonist mode): 48%
- 5-HT7 [%] (5-HT7 receptor): 100%
- D4.4 [%] (receptors D4.4): 90%
- α2C [%] (α2C adrenergic receptors): 106%
- 5-HT7 ag [%] [3]: 19%
- 5-HT7 antag [%] [3]: 68%

Compound: O=S(=O)(NCC1CN(CCOc2cccc3c2OCCO3)C1)c1ccc(Cl)c(Cl)c1 [Compound 183, 3,4-Dichloro-N-[[1-[2-(2,3-dihydro-1,4-benzodioxin-5-yloxy)ethyl]azetidin-3-yl]methyl]benzenesulphonamide]
- inhibition at 1 µM (5-HT6 receptor): 81%
- 5-HT2A ag [%] [2]: 1%
- inhibition at 1 µM (5-HT7 receptor): 102%
- inhibition at 1 µM (receptors D4.4): 80%
- inhibition at 1 µM (α2C adrenergic receptors): 99%
- 5-HT7 ag [%] [3]: 2%

Compound: Cc1c(S(=O)(=O)N[C@@H]2CCN(CCCc3noc4cc(F)ccc34)C2)sc2ccc(Cl)cc12 [Compound 204, 5-Chloro-N-[(3R)-1-[3-(6-fluoro-1,2-benzoxazol-3-yl)propyl]pyrrolidin-3-yl]-3-methyl-benzothiophene-2-sulphonamide]
- 5-HT6 ag [%] [1]: −1%
- inhibition at 1 µM (5-HT6 receptor): 97%
- Ki (5-HT6 receptor): 6.9 nM
- 5-HT2A ag [%] [2, 4]: −1%
- inhibition at 1 µM (5-HT7 receptor): 87%
- inhibition at 1 µM (receptors D4.4): 71%
- inhibition at 1 µM (α2C adrenergic receptors): 89%

Compound: COc1ccc2cc(S(=O)(=O)N[C@@H]3CCN(CCCc4noc5cc(F)ccc45)C3)ccc2c1 [Compound 230, N-[(3R)-1-[3-(6-Fluoro-1,2-benzoxazol-3-yl)propyl]pyrrolidin-3-yl]-6-methoxy-naphthalene-2-sulphonamide]
- 5-HT6 ag [%] [1]: −1%
- inhibition at 1 µM (5-HT6 receptor): 96%
- Ki (5-HT6 receptor): 15 nM
- 5-HT2A ag [%] [2, 4]: −2%
- inhibition at 1 µM (5-HT7 receptor): 87%
- inhibition at 1 µM (receptors D4.4): 88%
- inhibition at 1 µM (α2C adrenergic receptors): 92%

Compound: COc1ccc2cc(S(=O)(=O)N[C@H]3CCN(CCCc4noc5cc(F)ccc45)C3)ccc2c1 [Compound 231, N-[(3S)-1-[3-(6-Fluoro-1,2-benzoxazol-3-yl)propyl]pyrrolidin-3-yl]-6-methoxy-naphthalene-2-sulphonamide]
- inhibition at 1 µM (5-HT6 receptor): 86%
- Ki (5-HT6 receptor): 79 nM
- 5-HT2A ag [%] [2, 4]: 0%
- inhibition at 1 µM (5-HT7 receptor): 88%
- inhibition at 1 µM (receptors D4.4): 89%
- inhibition at 1 µM (α2C adrenergic receptors): 89%

Compound: N-[[1-[2-[(2,2-Dimethyl-3H-benzofuran-7-yl)oxy]ethyl]azetidin-3-yl]methyl]-3-hydroxy-benzenesulphonamide [Compound 111]
- 5-HT6 [%] (5-HT6 receptor): 41%
- 5-HT2A ag [%] [2, 4]: 5%
- 5-HT2A antag [%] ([2]; antagonist mode): 58%
- 5-HT7 [%] (5-HT7 receptor): 100%
- D4.4 [%] (receptors D4.4): 61%
- α2C [%] (α2C adrenergic receptors): 90%
- 5-HT7 ag [%] [3]: 24%
- 5-HT7 antag [%] [3]: 55%
